One assay deals with HRAS wild-type protein (Homo sapiens, UniProt P01112). Briefly: Binding to HRAS by surface plasmon resonance (SPR), KD and KD ratio to KRAS. In a few lines:
(§1)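 Affinity is measured by surface plasmon resonance at 30°C against captured, GDP-loaded RAS carrying a biotinylated Avi tag. Compounds are titrated by single-cycle kinetics, and KD comes from a 1:1 fit.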
On the technique in general: Surface plasmon resonance follows binding to a sensor surface in real time, without labels.

In assay [1] the target is GDP-bound NRAS wild-type protein (Homo sapiens, UniProt P01111). Briefly: Binding to NRAS by surface plasmon resonance (SPR), KD and KD ratio to KRAS. In outline: as §1
The subject of assay [2] is human lung cancer strain NCI-H441. The format is cell-based. In a few lines:
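Readout: […] after the ATP-based reagent. Compound: serial dilutions in dimethyl sulfoxide.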

Where [3] appears, read: ratio of the KD value with respect to HRAS wild-type protein to the KD value with respect to KRAS.
The mark [4] stands for this setting: ratio of the KD value with respect to GDP-bound NRAS wild-type protein to the KD value with respect to KRAS.
Where [5] appears, read: ratio of KD for HRAS wild-type protein to KD for KRAS.
Where [6] appears, read: ratio of KD for GDP-bound NRAS wild-type protein to KD for KRAS.
Setting [7] is: ratio of KD value for HRAS wild-type protein to KD value for KRAS (SPR).
[8] abbreviates: ratio of KD value for GDP-bound NRAS wild-type protein to KD value for KRAS (SPR).

Molecules are shown by their SMILES. pIC50: −log10 of the molar value. Where a SMILES comes first, the peptide text is derived from it. Bridges are numbered along the chain shown (N, C = ends). [ ]: non-standard residue; d: D form. The star is where a group is joined. hPhe(3-Cl-4-CF3) = N[C@@H](CCc1ccc(C(F)(F)F)c(Cl)c1)C(=O)O; NPrPhe(4-CF3) = CCCN[C@@H](Cc1ccc(C(F)(F)F)cc1)C(=O)O; Abu(4,4,4-F3) = N[C@@H](CC(F)(F)F)C(=O)O; NMeGly(cPent) = CN[C@H](C(=O)O)C1CCCC1; NMeD = CN[C@@H](CC(=O)O)C(=O)O; NMeL = CN[C@@H](CC(C)C)C(=O)O; NMeAbu = CC[C@H](NC)C(=O)O; Morpholide = C1CN(*)CCO1; NMeA = CN[C@@H](C)C(=O)O; Ac5c = NC1(C(=O)O)CCCC1; Aze = O=C(O)[C@@H]1CCN1; Sar = CNCC(=O)O

One may read the pIC50 as the negative decadic logarithm of the IC50, by convention in mol/L. Low values mean a high IC50, high ones a low IC50.

Sequence of GDP-bound NRAS wild-type protein (P01111 whole entry): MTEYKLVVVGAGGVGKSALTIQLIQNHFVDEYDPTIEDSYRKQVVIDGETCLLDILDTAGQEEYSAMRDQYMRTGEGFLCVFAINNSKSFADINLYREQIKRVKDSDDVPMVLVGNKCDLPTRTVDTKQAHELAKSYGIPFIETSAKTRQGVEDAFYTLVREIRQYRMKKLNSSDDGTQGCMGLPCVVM
Sequence of HRAS wild-type protein (P01112 whole entry): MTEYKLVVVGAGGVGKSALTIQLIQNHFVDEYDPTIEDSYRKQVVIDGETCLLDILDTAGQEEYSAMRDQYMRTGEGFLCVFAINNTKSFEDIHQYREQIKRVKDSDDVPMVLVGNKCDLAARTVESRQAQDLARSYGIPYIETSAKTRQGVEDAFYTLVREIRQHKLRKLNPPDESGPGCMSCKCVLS

Consider `CC[C@H](C)[C@@H]1NC(=O)[C@H](CC(C)C)N(C)C(=O)C[C@@H](C(=O)N2CCOCC2)N(C)C(=O)[C@H](C2CCCC2)N(C)C(=O)C2(CCCC2)NC(=O)[C@@H]2CCCN2C(=O)[C@H](CCc2cc(F)c(C(F)(F)F)c(F)c2)NC(=O)CN(C)C(=O)[C@H](Cc2ccc(C(F)(F)F)cc2)N2CCCC[C@@H](C2=O)N(C)C(=O)CN(C)C1=O` [PP0552], for which, on HRAS wild-type protein (setting [3]), the “HRAS /KRAS” value was “B (a compound having 3 or more and less than 10 is denoted as B)”. Besides, the “NRAS /KRAS” value in assay [1] (setting [4]) is “B (a compound having 3 or more and less than 10 is denoted as B)”. The same compound gave a pIC50 in assay [2] of 8.55.
Consider `CC[C@H](C)[C@@H]1NC(=O)[C@H](CC(C)C)N(C)C(=O)CSC[C@H](C(=O)N(C)C)N(C)C(=O)[C@H](C2CCCC2)N(C)C(=O)C2(CCCC2)NC(=O)[C@@H]2CCCN2C(=O)[C@@H](CCc2cc(F)c(C(F)(F)F)c(F)c2)NC(=O)CN(C)C(=O)[C@H](Cc2ccc(C(F)(F)F)cc2)N2CC=CC[C@@H](C2=O)N(C)C(=O)CN(C)C1=O` [PP3108], for which the “HRAS /KRAS” value at HRAS wild-type protein (setting [5]) was “B (a compound having 3 or more and less than 10 is denoted as B)”. The “NRAS /KRAS” value in assay [1] (setting [6]) is “C (A compound having a KD ratio of 0.1 or more and less than 3 is denoted as C)”. In assay [2], this compound gave a pIC50 of 5.03.
Turning to `CCO[C@@H]1C[C@H]2C(=O)NC3(CCC3)C(=O)N(C)[C@@H](C3CCCC3)C(=O)N(C)[C@H](C(=O)N(C)C)CC(=O)N(C)[C@@H](Cc3cccs3)C(=O)N[C@@H]([C@@H](C)CC)C(=O)N(C)CC(=O)N(C)[C@H]3C/C=C\CCN(C3=O)[C@@H](Cc3ccc(C(F)(F)F)cc3)C(=O)N(C)CC(=O)N[C@@H](CCc3cc(F)c(C(F)(F)F)c(F)c3)C(=O)N2C1` [PP1123], the “HRAS /KRAS” value at HRAS wild-type protein (setting [5]) is “B (a compound having 3 or more and less than 10 is denoted as B)”. The “NRAS /KRAS” value in assay [1] (setting [6]) was “A (a compound having 10 or more and less than 20 is denoted as A)”. In assay [2], this compound had a pIC50 of 7.87.
Regarding `CCO[C@@H]1C[C@H]2C(=O)NC3(CCC3)C(=O)N(C)[C@@H](C3CCCC3)C(=O)N(C)[C@H](C(=O)N(C)CC)CC(=O)N(C)[C@H]3CCC/C=C/c4ccc(cc4)C[C@@H](C(=O)N(C)CC(=O)N[C@@H](CCc4ccc(C(F)(F)F)c(OC)c4)C(=O)N2C1)N1CC/C=C\C[C@@H](C1=O)N(C)C(=O)CN(C)C(=O)[C@H]([C@@H](C)CC)NC3=O` [PP1834], the “HRAS /KRAS” value at HRAS wild-type protein (setting [7]) is “B (a compound having 3 or more and less than 10 is denoted as B)”. Further, the “NRAS /KRAS” value in assay [1] (setting [8]) was “A (a compound having 10 or more and less than 20 is denoted as A)”. Also, in assay [2], the pIC50 was 8.68.
In the case of `CCO[C@@H]1C[C@H]2C(=O)NC3(CCC3)C(=O)N(C)[C@@H](C3CCCC3)C(=O)N(C)[C@H](C(=O)N(C)C)CC(=O)N(C)[C@@H](Cc3cccc(Cl)c3)C(=O)N[C@@H]([C@@H](C)CC)C(=O)N(C)CC(=O)N(C)[C@H]3C/C=C\CCN(C3=O)[C@@H](Cc3ccc(C(F)(F)F)cc3)C(=O)N(C)CC(=O)N[C@@H](CCc3cc(F)c(C(F)(F)F)c(F)c3)C(=O)N2C1` [PP1127], the “HRAS /KRAS” value at HRAS wild-type protein (setting [5]) was “A (a compound having 10 or more and less than 20 is denoted as A)”. Moreover, in assay [1] (setting [6]), the “NRAS /KRAS” value is listed as “AA (a compound having 20 or more is denoted as AA)”. Moreover, in assay [2], the pIC50 was 7.92.
Regarding `CCO[C@@H]1C[C@H]2C(=O)NC3(CCC3)C(=O)N(C)[C@@H](C3CCCC3)C(=O)N(C)[C@H](C(=O)N(C)C)CC(=O)N(C)[C@@H](CC(C)C)C(=O)N[C@@H]([C@@H](C)CC)C(=O)N3CC[C@H]3C(=O)N(C)[C@H]3CC(C)=C(C)CN(C3=O)[C@@H](Cc3ccc(C(F)(F)F)cc3)C(=O)N(C)CC(=O)N[C@@H](CCc3cc(F)c(C(F)(F)F)c(F)c3)C(=O)N2C1` [PP1047], at HRAS wild-type protein (setting [5]), the “HRAS /KRAS” value was “C (A compound having a KD ratio of 0.1 or more and less than 3 is denoted as C)”. Moreover, the “NRAS /KRAS” value in assay [1] (setting [6]) is “C (A compound having a KD ratio of 0.1 or more and less than 3 is denoted as C)”. For the same compound, in assay [2], the pIC50 was 6.93.
As to `CCCN(C)C(=O)[C@@H]1CC(=O)N(C)[C@@H](CC(F)(F)F)C(=O)N[C@@H]([C@@H](C)CC)C(=O)N(C)CC(=O)N(C)[C@H]2C/C=C\CCN(C2=O)[C@@H](Cc2ccc(C(F)(F)F)cc2)C(=O)N(C)CC(=O)N[C@@H](CCc2cc(F)c(C(F)(F)F)c(F)c2)C(=O)N2C[C@H](OCC)C[C@H]2C(=O)NC2(CC(F)(F)C2)C(=O)N(C)[C@@H](C2CCCC2)C(=O)N1C` [PP1734], on HRAS wild-type protein (setting [7]), the “HRAS /KRAS” value was “A (a compound having 10 or more and less than 20 is denoted as A)”. In addition, the “NRAS /KRAS” value in assay [1] (setting [8]) was “A (a compound having 10 or more and less than 20 is denoted as A)”. Further, the pIC50 in assay [2] is 8.36.
Regarding `CCCN1C(=O)[C@@H]2CCN2C(=O)[C@H](C)N(C)C(=O)[C@H](CC(F)(F)F)NC(=O)[C@H](CC(C)C)N(C)C(=O)C[C@@H](C(=O)N2CCOCC2)N(C)C(=O)[C@H](C2CCCC2)N(C)C(=O)C2(CCCC2)NC(=O)[C@@H]2CCCN2C(=O)[C@H](CCc2ccc(C(F)(F)F)c(Cl)c2)NC(=O)CN(C)C(=O)[C@@H]1Cc1ccc(C(F)(F)F)cc1` [PP0270] ([NMeL][Abu(4,4,4-F3)][NMeA][Aze][NPrPhe(4-CF3)][Sar][hPhe(3-Cl-4-CF3)]P[Ac5c][NMeGly(cPent)][NMeD]-Morpholide; lactam N-11), on HRAS wild-type protein (setting [5]), the “HRAS /KRAS” value is “B (a compound having 3 or more and less than 10 is denoted as B)”. In assay [1] (setting [6]), the “NRAS /KRAS” value is “C (A compound having a KD ratio of 0.1 or more and less than 3 is denoted as C)”. In assay [2], this compound showed a pIC50 of 8.07.
As to `CCCN1C(=O)[C@@H]2CCN2C(=O)[C@H](C)N(C)C(=O)[C@H]([C@@H](C)CC)NC(=O)[C@H](CC)N(C)C(=O)C[C@@H](C(=O)N2CCOCC2)N(C)C(=O)[C@H](C2CCCC2)N(C)C(=O)C2(CCCC2)NC(=O)[C@@H]2CCCN2C(=O)[C@H](CCc2ccc(C(F)(F)F)c(Cl)c2)NC(=O)CN(C)C(=O)[C@@H]1Cc1ccc(C(F)(F)F)cc1` [PP0194] ([NMeAbu]I[NMeA][Aze][NPrPhe(4-CF3)][Sar][hPhe(3-Cl-4-CF3)]P[Ac5c][NMeGly(cPent)][NMeD]-Morpholide; lactam N-11), the “HRAS /KRAS” value on HRAS wild-type protein (setting [5]) was “B (a compound having 3 or more and less than 10 is denoted as B)”. In assay [1] (setting [6]), the “NRAS /KRAS” value is “C (A compound having a KD ratio of 0.1 or more and less than 3 is denoted as C)”. Besides, the pIC50 in assay [2] was 8.72.
Consider `CCO[C@@H]1C[C@H]2C(=O)NC3(CCC3)C(=O)N(C)[C@@H](C3CCCCC3)C(=O)N(C)[C@H](C(=O)N(C)C)CC(=O)N(C)[C@@H](CC)C(=O)N[C@@H]([C@@H](C)CC)C(=O)N(C)CC(=O)N(C)[C@H]3C/C=C\CCN(C3=O)[C@@H](Cc3ccc(C(F)(F)F)cc3)C(=O)N(C)CC(=O)N[C@@H](CCc3cc(F)c(C(F)(F)F)c(F)c3)C(=O)N2C1` [PP1086], for which, on HRAS wild-type protein (setting [5]), the “HRAS /KRAS” value is “A (a compound having 10 or more and less than 20 is denoted as A)”. In addition, the “NRAS /KRAS” value in assay [1] (setting [6]) is listed as “AA (a compound having 20 or more is denoted as AA)”. Also, the pIC50 in assay [2] was 7.65.
Take `CC[C@H](C)[C@@H]1NC(=O)[C@H](CC(C)C)N(C)C(=O)C[C@@H](C(=O)N2CCOCC2)N(C)C(=O)[C@H](C2CCCC2)N(C)C(=O)C(C)(C)NC(=O)[C@@H]2CCCN2C(=O)[C@H](CCc2cc(F)c(C(F)(F)F)c(F)c2)NC(=O)CN(C)C(=O)[C@H](Cc2ccc(C(F)(F)F)cc2)N2CCCCC[C@@H](C2=O)N(C)C(=O)CN(C)C1=O` [PP0503]: at HRAS wild-type protein (setting [3]), the “HRAS /KRAS” value is “B (a compound having 3 or more and less than 10 is denoted as B)”. Also, the “NRAS /KRAS” value in assay [1] (setting [4]) is “A (a compound having 10 or more and less than 20 is denoted as A)”. For the same compound, the pIC50 in assay [2] was 6.55.

The record behind these values is EP4603105A1, “PHARMACEUTICAL COMPOSITION CONTAINING CYCLIC COMPOUND HAVING SELECTIVE KRAS INHIBITORY EFFECT AGAINST HRAS AND NRAS” (CHUGAI SEIYAKU KABUSHIKI KAISHA, priority 2022, dated 2024).
